Test results reported in patent US12679878B2, “CRF2 receptor agonists and their use in therapy” (SANOFI, priority 2020, dated 2026).
Like-named read-outs stand apart in the source and are kept apart here. Starred links: 1 amine or outer side, 2 acyl side, 3 side chain; linkers in the order of their positions; H or OH if unused. Non-standard residues stand in square brackets, D forms with d. Residues, ends and D or L forms follow the SMILES beside them. Groups on a side chain read outwards from the residue. *: point of attachment. C18 diacid = O=C(O)CCCCCCCCCCCCCCCCC(=O)*; γGlu = O=C(O)[C@H](CCC(=O)[*:2])N[*:1]; AEEA = NCCOCCOCC(=O)O; Aib = CC(C)(N)C(=O)O

Biological target: T1, human CRF2α receptor (Homo sapiens, UniProt Q13324)
T1 construct: expressed in transfected cells; host or cells: TeloHEAC
T1 sequence (Q13324 1-411): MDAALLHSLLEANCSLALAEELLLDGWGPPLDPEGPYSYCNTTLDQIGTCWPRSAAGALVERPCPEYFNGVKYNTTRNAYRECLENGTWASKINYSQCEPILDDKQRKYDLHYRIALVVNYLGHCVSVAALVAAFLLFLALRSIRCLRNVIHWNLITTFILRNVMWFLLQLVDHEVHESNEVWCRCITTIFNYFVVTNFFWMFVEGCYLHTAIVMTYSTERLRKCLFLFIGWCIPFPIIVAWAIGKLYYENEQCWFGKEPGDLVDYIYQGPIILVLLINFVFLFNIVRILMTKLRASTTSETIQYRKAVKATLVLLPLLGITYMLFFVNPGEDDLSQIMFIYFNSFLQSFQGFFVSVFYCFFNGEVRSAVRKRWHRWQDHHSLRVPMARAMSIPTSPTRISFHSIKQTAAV
Assay: cAMP agonism at human CRF2 α receptor in TeloHEAC cells (Example 7)
Type: cell-based
Method in brief: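 Cryopreserved cells are thawed, washed and resuspended in IBMX-containing (2 mM) HEPES-buffered HBSS with or without 0.1% HSA. Compound incubation runs 30 min at room temperature with 2000 cells per well, then cAMP is measured by time-resolved FRET. Potency is expressed as EC50, efficacy relative to urocortin 2 at 1000 nM.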

[1] = cAMP HTRF, TeloHEAC cells stably expressing human CRF2 α, 0% HSA, read-out: EC50 [nM], 0% HSA
[2] = cAMP HTRF, TeloHEAC cells stably expressing human CRF2 α, 0.1% HSA, read-out: EC50 [nM], 0.1% HSA

EC50 [1] [nM]	EC50 [2] [nM]	SMILES	EC50 (EC50 [nM], 0% HSA) [nM]	EC50 (EC50 [nM], 0.1% HSA) [nM]
0.15	3.02	CC[C@H](C)[C@H](N)C(=O)N[C@H](C(=O)N[C@@H](CC(C)C)C(=O)N[C@@H](CO)C(=O)N[C@@H](CC(C)C)C(=O)N[C@@H](CC(=O)O)C(=O)N[C@@H](C(=O)N1CCC[C@H]1C(=O)N[C@H](C(=O)N[C@@H](CCCCN)C(=O)N[C@@H](CC(C)C)C(=O)N[C@@H](CCCCNC(=O)COCCOCCNC(=O)COCCOCCNC(=O)CC[C@H](NC(=O)CCCCCCCCCCCCCCCCC(=O)O)C(=O)O)C(=O)N[C@@H](CCC(N)=O)C(=O)N[C@H](C(=O)N[C@@H](CC(C)C)C(=O)N[C@@H](CC(C)C)C(=O)N[C@@H](CCC(=O)O)C(=O)N[C@@H](CCC(N)=O)C(=O)N[C@@H](CCC(=O)O)C(=O)N[C@@H](CCCNC(=N)N)C(=O)N[C@@H](CCC(N)=O)C(=O)N[C@@H](CCCCN)C(=O)NC(C)(C)C(=O)N[C@@H](CCC(N)=O)C(=O)N[C@@H](CCCNC(=N)N)C(=O)N[C@@H](CCC(=O)O)C(=O)N[C@@H](CCC(N)=O)C(=O)N[C@@H](C)C(=O)N[C@@H](CCC(=O)O)C(=O)N[C@@H](CCCCN)C(=O)N[C@@H](CC(N)=O)C(=O)N[C@@H](CCCCN)C(=O)N[C@@H](CCC(N)=O)C(=O)N[C@H](C(=O)N[C@@H](CC(C)C)C(=O)N[C@@H](C)C(=O)N[C@@H](CCC(N)=O)C(=O)N[C@H](C(N)=O)C(C)C)[C@@H](C)CC)[C@@H](C)CC)[C@@H](C)CC)C(C)C)C(C)C [compound 129] (H-IVLSLD[dV]PIKLK([AEEA-AEEA-γGlu-C18 diacid])QILLEQERQK[Aib]QREQAEKNKQILAQV-NH2)	–	–
0.09	3.19	CC[C@H](C)[C@H](N)C(=O)N[C@H](C(=O)N[C@@H](CC(C)C)C(=O)N[C@@H](CO)C(=O)N[C@@H](CC(C)C)C(=O)N[C@@H](CC(=O)O)C(=O)N[C@@H](C(=O)N1CCC[C@H]1C(=O)N[C@H](C(=O)N[C@@H](CCCCN)C(=O)N[C@@H](CC(C)C)C(=O)N[C@@H](CCCCNC(=O)COCCOCCNC(=O)COCCOCCNC(=O)CC[C@H](NC(=O)CCCCCCCCCCCCCCCCC(=O)O)C(=O)O)C(=O)N[C@@H](CCC(N)=O)C(=O)N[C@H](C(=O)N[C@@H](CC(C)C)C(=O)N[C@@H](CC(C)C)C(=O)N[C@@H](CCCCN)C(=O)N[C@@H](CCC(N)=O)C(=O)N[C@@H](CCC(=O)O)C(=O)N[C@@H](CCCNC(=N)N)C(=O)N[C@@H](CCC(N)=O)C(=O)N[C@@H](CCCCN)C(=O)NC(C)(C)C(=O)N[C@@H](CCC(N)=O)C(=O)N[C@@H](CCCNC(=N)N)C(=O)N[C@@H](CCC(=O)O)C(=O)N[C@@H](CCC(N)=O)C(=O)N[C@@H](C)C(=O)N[C@@H](CCC(=O)O)C(=O)N[C@@H](CCCCN)C(=O)N[C@@H](CC(N)=O)C(=O)N[C@@H](CCCCN)C(=O)N[C@@H](CCC(N)=O)C(=O)N[C@H](C(=O)N[C@@H](CC(C)C)C(=O)N[C@@H](CCC(=O)O)C(=O)N[C@@H](CCCNC(=N)N)C(=O)N[C@H](C(N)=O)C(C)C)[C@@H](C)CC)[C@@H](C)CC)[C@@H](C)CC)C(C)C)C(C)C [compound 133] (H-IVLSLD[dV]PIKLK([AEEA-AEEA-γGlu-C18 diacid])QILLKQERQK[Aib]QREQAEKNKQILERV-NH2; N-terminus assumed)	–	–
33.7	–	CC[C@H](C)[C@H](NC(C)=O)C(=O)N[C@H](C(=O)N[C@@H](CC(C)C)C(=O)N[C@@H](CO)C(=O)N[C@@H](CC(C)C)C(=O)N[C@@H](CC(=O)O)C(=O)N[C@H](C(=O)N1CCC[C@H]1C(=O)N[C@H](C(=O)NCC(=O)N[C@@H](CC(C)C)C(=O)N[C@@H](CCCCNC(=O)COCCOCCNC(=O)COCCOCCNC(=O)CC[C@H](NC(=O)CCCCCCCCCCCCCCCCC(=O)O)C(=O)O)C(=O)N[C@@H](CCC(N)=O)C(=O)N[C@H](C(=O)N[C@@H](CC(C)C)C(=O)N[C@@H](CC(C)C)C(=O)N[C@@H](CCC(=O)O)C(=O)N[C@@H](CCC(N)=O)C(=O)N[C@@H](CCC(=O)O)C(=O)N[C@@H](CCCCN)C(=O)N[C@@H](CCC(N)=O)C(=O)N[C@@H](CCC(=O)O)C(=O)N[C@@H](CCCCN)C(=O)N[C@@H](CCC(=O)O)C(=O)N[C@@H](CCCCN)C(=O)N[C@@H](CCC(N)=O)C(=O)N[C@@H](CCC(N)=O)C(=O)N[C@@H](C)C(=O)N[C@@H](CCC(=O)O)C(=O)N[C@H](C(=O)N[C@@H](CC(N)=O)C(=O)N[C@@H](C)C(=O)N[C@@H](CCC(N)=O)C(=O)N[C@H](C(=O)N[C@@H](CC(C)C)C(=O)N[C@@H](C)C(=O)N[C@@H](CCC(N)=O)C(=O)N[C@H](C(N)=O)C(C)C)[C@@H](C)CC)[C@@H](C)O)[C@@H](C)CC)[C@@H](C)CC)C(C)C)C(C)C [compound 153] (Ac-IVLSLDVPIGLK([AEEA-AEEA-γGlu-C18 diacid])QILLEQEKQEKEKQQAETNAQILAQV-NH2)	–	–

Continued, compound first:

SMILES	EC50 [1] [nM]	EC50 [2] [nM]	EC50 (EC50 [nM], 0% HSA) [nM]	EC50 (EC50 [nM], 0.1% HSA) [nM]
CC[C@H](C)[C@H](NC(=O)[C@H](CCC(N)=O)NC(=O)[C@H](CCCCN)NC(=O)[C@H](CC(N)=O)NC(=O)[C@@H](NC(=O)[C@H](CCCCN)NC(=O)[C@H](C)NC(=O)[C@H](CCCCN)NC(=O)[C@H](CCC(N)=O)NC(=O)[C@H](CCCNC(=N)N)NC(=O)[C@H](CCC(N)=O)NC(=O)[C@H](CCCCN)NC(=O)[C@H](CCCCN)NC(=O)[C@H](CCC(N)=O)NC(=O)[C@H](CCCCN)NC(=O)[C@H](CCC(=O)O)NC(=O)[C@H](CCC(N)=O)NC(=O)[C@H](CCCCN)NC(=O)[C@H](CC(C)C)NC(=O)[C@H](CC(C)C)NC(=O)[C@@H](NC(=O)[C@H](CCC(N)=O)NC(=O)[C@H](CCCCNC(=O)COCCOCCNC(=O)COCCOCCNC(=O)CC[C@H](NC(=O)CCCCCCCCCCCCCCCCC(=O)O)C(=O)O)NC(=O)[C@@H](NC(=O)[C@H](CCCCN)NC(=O)[C@@H](NC(=O)[C@@H]1CCCN1C(=O)[C@@H](NC(=O)[C@H](CC(=O)O)NC(=O)[C@H](CC(C)C)NC(=O)[C@H](CO)NC(=O)[C@H](CC(C)C)NC(=O)[C@@H](NC(=O)[C@@H](N)Cc1ccccc1)[C@@H](C)O)C(C)C)[C@@H](C)O)[C@@H](C)CC)[C@@H](C)CC)[C@@H](C)O)C(=O)N[C@@H](CC(C)C)C(=O)N[C@@H](CCC(=O)O)C(=O)N[C@@H](CCCNC(=N)N)C(=O)N[C@H](C(N)=O)C(C)C [compound 143] (H-FTLSLDVPTKIK([AEEA-AEEA-γGlu-C18 diacid])QILLKQEKQKKQRQKAKTNKQILERV-NH2)	–	–	1.44	93.8
CC[C@H](C)[C@H](NC(=O)[C@H](CCC(N)=O)NC(=O)[C@H](CCCCN)NC(=O)[C@H](CC(N)=O)NC(=O)[C@@H](NC(=O)[C@H](CCCCN)NC(=O)[C@H](C)NC(=O)[C@H](CCCCN)NC(=O)[C@H](CCC(N)=O)NC(=O)[C@H](CCCNC(=N)N)NC(=O)[C@H](CCC(N)=O)NC(=O)[C@H](CCCCN)NC(=O)[C@H](CCCCN)NC(=O)[C@H](CCC(N)=O)NC(=O)[C@H](CCCNC(=N)N)NC(=O)[C@H](CCC(=O)O)NC(=O)[C@H](CCC(N)=O)NC(=O)[C@H](CCCCN)NC(=O)[C@H](CC(C)C)NC(=O)[C@H](CC(C)C)NC(=O)[C@@H](NC(=O)[C@H](CCC(N)=O)NC(=O)[C@H](CCCCNC(=O)COCCOCCNC(=O)COCCOCCNC(=O)CC[C@H](NC(=O)CCCCCCCCCCCCCCCCC(=O)O)C(=O)O)NC(=O)[C@@H](NC(=O)[C@H](CCCCN)NC(=O)[C@@H](NC(=O)[C@@H]1CCCN1C(=O)[C@@H](NC(=O)[C@H](CC(=O)O)NC(=O)[C@H](CC(C)C)NC(=O)[C@H](CO)NC(=O)[C@H](CC(C)C)NC(=O)[C@@H](NC(=O)[C@@H](N)Cc1ccccc1)[C@@H](C)O)C(C)C)[C@@H](C)O)[C@@H](C)CC)[C@@H](C)CC)[C@@H](C)O)C(=O)N[C@@H](CC(C)C)C(=O)N[C@@H](CCC(=O)O)C(=O)N[C@@H](CCCNC(=N)N)C(=O)N[C@H](C(N)=O)C(C)C [compound 144] (H-FTLSLDVPTKIK([AEEA-AEEA-γGlu-C18 diacid])QILLKQERQKKQRQKAKTNKQILERV-NH2)	1.36	76.3	–	–
CC[C@H](C)[C@H](NC(=O)[C@H](CCC(N)=O)NC(=O)[C@H](CCCCN)NC(=O)[C@H](CC(N)=O)NC(=O)[C@H](CCCCN)NC(=O)[C@H](CCCCN)NC(=O)[C@H](C)NC(=O)[C@H](CCCCN)NC(=O)[C@H](CCC(N)=O)NC(=O)[C@H](CCCNC(=N)N)NC(=O)[C@H](CCC(N)=O)NC(=O)[C@H](CCCCN)NC(=O)[C@H](CCCCN)NC(=O)[C@H](CCC(N)=O)NC(=O)[C@H](CCCNC(=N)N)NC(=O)[C@H](CCC(=O)O)NC(=O)[C@H](CCC(N)=O)NC(=O)[C@H](CCCCN)NC(=O)[C@H](CC(C)C)NC(=O)[C@H](CC(C)C)NC(=O)[C@@H](NC(=O)[C@H](CCC(N)=O)NC(=O)[C@H](CCCCNC(=O)COCCOCCNC(=O)COCCOCCNC(=O)CC[C@H](NC(=O)CCCCCCCCCCCCCCCCC(=O)O)C(=O)O)NC(=O)[C@@H](NC(=O)[C@H](CCCCN)NC(=O)[C@@H](NC(=O)[C@@H]1CCCN1C(=O)[C@@H](NC(=O)[C@H](CC(=O)O)NC(=O)[C@H](CC(C)C)NC(=O)[C@H](CO)NC(=O)[C@H](CC(C)C)NC(=O)[C@@H](NC(=O)[C@@H](N)Cc1ccccc1)[C@@H](C)O)C(C)C)[C@@H](C)O)[C@@H](C)CC)[C@@H](C)CC)C(=O)N[C@@H](CC(C)C)C(=O)N[C@@H](CCC(=O)O)C(=O)N[C@@H](CCCNC(=N)N)C(=O)N[C@H](C(N)=O)C(C)C [compound 145] (H-FTLSLDVPTKIK([AEEA-AEEA-γGlu-C18 diacid])QILLKQERQKKQRQKAKKNKQILERV-NH2)	1.46	96.9	–	–
